Measured values from ChEMBL document CHEMBL1629458, “Synthesis of phosphatidylinositol 3-kinase (PI3K) inhibitory analogues of the sponge meroterpenoid liphagal” (J Med Chem, 2010).

How the values were obtained:
[1] = molecular target: Phosphatidylinositol 4,5-bisphosphate 3-kinase catalytic subunit gamma isoform (Homo sapiens, UniProt P48736); assay: Inhibition of human PI3Kgamma expressed in Sf9 cells by fluorescent polarization assay
[2] = molecular target: Phosphatidylinositol 4,5-bisphosphate 3-kinase catalytic subunit alpha isoform (Homo sapiens, UniProt P42336); assay: Inhibition of human PI3Kalpha expressed in Sf9 cells by fluorescent polarization assay
Homo sapiens = species: Homo sapiens; assay: Selectivity for human PI3Kalpha over human PI3Kgamma

Phosphatidylinositol 4,5-bisphosphate 3-kinase catalytic subunit gamma isoform, sequence (P48736 whole entry, canonical isoform): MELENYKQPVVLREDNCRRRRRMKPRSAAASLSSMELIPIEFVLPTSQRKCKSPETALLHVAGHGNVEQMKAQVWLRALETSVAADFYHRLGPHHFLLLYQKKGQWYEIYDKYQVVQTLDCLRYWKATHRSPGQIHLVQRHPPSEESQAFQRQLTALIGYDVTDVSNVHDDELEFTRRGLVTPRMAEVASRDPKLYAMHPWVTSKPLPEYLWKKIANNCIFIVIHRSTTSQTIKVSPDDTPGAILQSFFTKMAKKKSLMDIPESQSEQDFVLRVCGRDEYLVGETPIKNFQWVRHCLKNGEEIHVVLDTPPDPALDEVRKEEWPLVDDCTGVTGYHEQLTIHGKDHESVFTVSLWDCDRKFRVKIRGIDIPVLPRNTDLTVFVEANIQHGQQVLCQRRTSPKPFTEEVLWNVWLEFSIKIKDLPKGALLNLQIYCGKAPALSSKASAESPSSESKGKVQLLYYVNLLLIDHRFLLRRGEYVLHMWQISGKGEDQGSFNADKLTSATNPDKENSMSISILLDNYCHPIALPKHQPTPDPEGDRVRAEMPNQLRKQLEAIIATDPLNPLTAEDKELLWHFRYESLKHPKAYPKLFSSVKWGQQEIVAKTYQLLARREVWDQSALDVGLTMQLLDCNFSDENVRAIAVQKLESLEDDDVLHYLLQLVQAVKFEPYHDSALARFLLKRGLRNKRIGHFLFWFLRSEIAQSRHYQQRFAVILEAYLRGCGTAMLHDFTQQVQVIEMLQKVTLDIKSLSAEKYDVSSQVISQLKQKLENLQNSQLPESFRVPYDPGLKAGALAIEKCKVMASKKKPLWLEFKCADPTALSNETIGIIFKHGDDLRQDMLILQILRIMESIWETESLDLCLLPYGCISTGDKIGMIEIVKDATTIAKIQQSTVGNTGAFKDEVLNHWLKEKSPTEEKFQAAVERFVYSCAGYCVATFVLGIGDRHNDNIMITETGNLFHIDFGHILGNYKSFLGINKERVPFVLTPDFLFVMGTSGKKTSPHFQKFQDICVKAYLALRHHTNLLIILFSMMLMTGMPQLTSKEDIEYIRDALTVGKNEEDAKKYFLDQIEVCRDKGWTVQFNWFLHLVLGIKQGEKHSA
Phosphatidylinositol 4,5-bisphosphate 3-kinase catalytic subunit alpha isoform, sequence (P42336 whole entry, canonical isoform): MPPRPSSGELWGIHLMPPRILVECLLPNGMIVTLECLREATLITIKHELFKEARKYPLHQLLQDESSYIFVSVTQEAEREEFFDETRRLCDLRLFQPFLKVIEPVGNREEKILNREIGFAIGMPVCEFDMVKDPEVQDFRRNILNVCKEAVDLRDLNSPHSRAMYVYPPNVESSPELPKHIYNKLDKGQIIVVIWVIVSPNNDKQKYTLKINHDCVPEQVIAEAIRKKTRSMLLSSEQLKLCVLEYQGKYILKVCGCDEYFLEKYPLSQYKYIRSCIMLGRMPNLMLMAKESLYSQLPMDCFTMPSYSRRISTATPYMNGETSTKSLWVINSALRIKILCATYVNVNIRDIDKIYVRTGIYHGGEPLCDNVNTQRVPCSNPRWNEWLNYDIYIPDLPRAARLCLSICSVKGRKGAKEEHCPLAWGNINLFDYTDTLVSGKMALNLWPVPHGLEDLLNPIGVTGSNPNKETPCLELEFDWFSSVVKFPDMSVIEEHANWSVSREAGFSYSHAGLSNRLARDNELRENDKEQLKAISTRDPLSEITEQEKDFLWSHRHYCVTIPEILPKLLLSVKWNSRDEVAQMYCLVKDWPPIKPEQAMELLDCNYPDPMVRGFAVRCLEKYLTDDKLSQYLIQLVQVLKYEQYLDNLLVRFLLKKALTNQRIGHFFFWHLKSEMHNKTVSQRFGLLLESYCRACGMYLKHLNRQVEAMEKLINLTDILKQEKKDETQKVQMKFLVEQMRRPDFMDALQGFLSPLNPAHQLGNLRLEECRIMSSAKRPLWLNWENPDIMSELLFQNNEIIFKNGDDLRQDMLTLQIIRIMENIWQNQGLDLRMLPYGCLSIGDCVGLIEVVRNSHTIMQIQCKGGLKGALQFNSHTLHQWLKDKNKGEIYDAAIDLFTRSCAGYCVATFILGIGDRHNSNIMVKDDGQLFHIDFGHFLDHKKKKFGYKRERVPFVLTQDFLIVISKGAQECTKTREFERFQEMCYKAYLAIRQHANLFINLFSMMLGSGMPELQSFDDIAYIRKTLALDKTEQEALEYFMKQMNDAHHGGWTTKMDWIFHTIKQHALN

CC1(C)CCC[C@]2(C)c3c(oc4c(C=O)c(O)c(O)cc34)CC[C@@H]12 (racemic)
IC50 [1]: 1800 nM | IC50 [2]: 66 nM | Ratio IC50 (Homo sapiens): 27

C[C@H]1CC[C@H]2C(C)(C)CCC[C@]2(C)c2c1oc1cc(O)ccc21
IC50 [1]: 2200 nM | IC50 [2]: 2200 nM

C[C@@H]1CC[C@H]2C(C)(C)CCC[C@]2(C)c2c1oc1ccc(O)cc21
IC50 [1]: 1900 nM | IC50 [2]: 7200 nM

C[C@@H]1CC[C@H]2C(C)(C)CCC[C@]2(C)c2c1oc1cc(O)ccc21
IC50 [1]: > 10000 nM | IC50 [2]: > 10000 nM

CC1(C)CCC[C@]2(C)c3c(oc4c(C(N)=O)c(O)c(O)cc34)CC[C@@H]12 (racemic)
IC50 [1]: 1400 nM | IC50 [2]: 700 nM

C[C@@H]1CC[C@H]2C(C)(C)CCC[C@]2(C)c2c1oc1c(C=O)c(O)c(O)cc21
IC50 [1]: 1000 nM | IC50 [2]: 100 nM

CC1(C)CCC[C@]2(C)C3=C4C=C(O)C(=O)C=C4OC3(O)CC[C@@H]12 (mixture of isomers)
IC50 [1]: 9570 nM | IC50 [2]: 1650 nM

COc1cc2c3c(oc2c(C=O)c1O)CC[C@H]1C(C)(C)CCC[C@]31C (racemic)
IC50 [1]: 5150 nM | IC50 [2]: 1000 nM

C[C@@H]1CCCC(C)(C)C12CC[C@H](C)c1oc3c(Br)c(O)c(O)cc3c12 (mixture of isomers)
IC50 [1]: 5300 nM | IC50 [2]: 700 nM | Ratio IC50 (Homo sapiens): 7

C[C@@H]1CC[C@H]2C(C)(C)CCC[C@]2(C)c2c1oc1c(Br)c(O)ccc21
IC50 [1]: 5700 nM | IC50 [2]: 10200 nM

C[C@@H]1CC[C@H]2C(C)(C)CCC[C@]2(C)C2=C3C=C(O)C(=O)C(Br)=C3OC21O (stereo partly drawn)
IC50 [1]: > 10000 nM | IC50 [2]: 3300 nM

COc1cc2c3c(oc2c(C=O)c1OC)CC[C@H]1C(C)(C)CCC[C@]31C (racemic)
IC50 [1]: 2640 nM | IC50 [2]: 5120 nM

COc1ccc2c3c(oc2c1Br)[C@H](C)CC[C@H]1C(C)(C)CCC[C@]31C
IC50 [1]: > 10000 nM | IC50 [2]: > 10000 nM
